The target of one data set is T1, MMP-3 (Homo sapiens, UniProt P08254).
T1 construct: Catalytic domains MMP-2, MMP-3 and MMP-9 were prepared in Pfizer Central Research laboratories; made in house
Description: Inhibition of MMP-3 (fluorogenic peptide cleavage). Type of data set: biochemical. Conditions: in vitro, catalytic domain MMP-3. The procedure:
(§1) The biological activities of the compounds of the present invention were determined by the following test methods, which are based on the ability of the compounds to inhibit the cleavage of various fluorogenic peptides by MMPs 1, 2, 3, 9, 13 and 14.
(§2) The assays for MMPs 2, 3, 9 and 14 are based upon the original protocol described in FEBS, 1992, 296, 263, with the minor modifications described below.
(§3) Inhibition of MMP-2, MMP-3 and MMP-9
(§4) Catalytic domains MMP-2, MMP-3 and MMP-9 were prepared in Pfizer Central Research laboratories. A stock solution of MMP-2, MMP-3 or MMP-9 (1 μM) was activated by the addition of APMA. For MMP-2 and MMP-9, a final concentration of 1 mM APMA was added, followed by incubation for 1 hour at 37° C. MMP-3 was activated by the addition of 2 mM APMA, followed by incubation for 3 hours at 37° C. The enzymes were then diluted in Tris-HCl assay buffer (100 mM Tris, 100 mM NaCl, 10 mM CaCl2 and 0.16% Brij 35, pH 7.5) to a concentration of 10 nM. The final concentration of enzyme used in the assays was 1 nM.
(§5) The fluorogenic substrate used in this screen was Mca-Arg-Pro-Lys-Pro-Tyr-Ala-Nva-Trp-Met-Lys(Dnp)-NH2 (Bachem Ltd., Essex, UK) as originally described in J.Biol.Chem., 1994, 269, 20952. This substrate was selected because it has a balanced hydrolysis rate against MMPs 2, 3 and 9 (kcat/km of 54,000, 59,400 and 55,300 s^−1 M^−1 respectively). The final substrate concentration used in the assay was 5 μM.
(§6) Determination of Enzyme Inhibition
(§7) The test compound was dissolved in dimethyl sulphoxide and diluted with assay buffer so that no more than 1% dimethyl sulphoxide was present. Test compound and enzyme were added to each well of a 96 well plate and allowed to equilibrate for 15 minutes at 37° C. in an orbital shaker prior to the addition of substrate. Plates were then incubated for 1 hour at 37° C., prior to determination of fluorescence using a fluorimeter (Fluostar; BMG Lab Technologies, Aylesbury, UK) at an excitation wavelength of 328 nm and emission wavelength of 393 nm. The potency of inhibition was measured from the amount of substrate cleavage obtained using a range of test compound concentrations and, from the resulting dose-response curve, an IC50 value (the concentration of inhibitor required to inhibit 50% of the enzyme activity) was calculated.

In the next data set the target is T2, MMP-2 (Homo sapiens, UniProt P08253).
T2 construct: Catalytic domains MMP-2, MMP-3 and MMP-9 were prepared in Pfizer Central Research laboratories
Kind of data set: Inhibition of MMP-2 (fluorogenic peptide cleavage). Type of data set: biochemical. Conditions: in vitro, catalytic domain MMP-2. The procedure:
as §1, §2, §3, §4, §5, §6, §7

For data set [1], the system named is human ovarian carcinoma xenografts. As to conditions: mice carrying human ovarian carcinoma xenografts; Cancer Res., 1993, 53, 2087; cited from earlier work.

The source of these data is patent US6495568B1, “Hydroxamic acid derivatives as matrix metalloprotease (MMP) inhibitors” (Warner-Lambert Company, priority 1997, dated 2002).

T2 sequence (P08253 with tags, fused parts or gaps DEL222-396 limits assumed): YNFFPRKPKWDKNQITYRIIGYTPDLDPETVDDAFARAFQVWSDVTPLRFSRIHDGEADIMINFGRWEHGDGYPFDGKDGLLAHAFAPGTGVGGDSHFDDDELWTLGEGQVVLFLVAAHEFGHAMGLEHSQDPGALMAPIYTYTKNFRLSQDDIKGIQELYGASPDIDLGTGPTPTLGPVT
T1 sequence (P08254 100-272 limits assumed): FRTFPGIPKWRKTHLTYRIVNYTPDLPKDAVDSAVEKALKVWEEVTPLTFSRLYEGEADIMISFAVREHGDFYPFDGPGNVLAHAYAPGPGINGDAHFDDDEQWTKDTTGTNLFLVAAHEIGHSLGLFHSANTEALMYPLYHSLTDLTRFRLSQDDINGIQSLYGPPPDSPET

Take `C=CCC(C)(C(=O)NO)S(=O)(=O)N1CC=C(c2ccc(-c3ccccc3)c(C)c2)CC1` (racemic) [Example 15, N-Hydroxy-2(R,S)-methyl-2-[4-(3-methyl-4-phenylphenyl)-1,2,3,6-tetrahydropyridin-1-ylsulphonyl]pent-4-enamide]: the IC50 against MMP-3 came out at 20 nM; at MMP-2, 173 nM. As to `CNC(=O)[C@H](Cc1ccccc1)NC(=O)[C@H](CC(C)C)[C@H](CSc1cccs1)C(=O)NO` [BB-94], in data set [1], the survival result is reported as “prolong the survival” and the tumour burden result is reported as “decrease the tumour burden”.

For the molecule `COc1cccc(-c2ccc(C3CCN(S(=O)(=O)C(C)(C)C(=O)NO)CC3)cc2OC)c1` [Example 26, N-Hydroxy-2-{4-[3-methoxy-4-(3-methoxyphenyl)phenyl]piperidin-1-ylsulphonyl}-2-methylpropanamide], the melting point lay in the range of 161 to 163 °C. As for `CCOc1cccc(-c2ccc(C3CCN(S(=O)(=O)C(C)(C)C(=O)NO)CC3)cc2OC)c1` [Example 27, N-Hydroxy-2-{4-[4(3-ethoxyphenyl)-3-methoxyphenyl]piperidin-1-ylsulphonyl}-2-methylpropanamide], the melting point lay within 134 to 136 °C. For the molecule `CCOc1cccc(-c2ccc(C3=CCN(S(=O)(=O)C4(C(=O)NO)CCOCC4)CC3)cc2C)c1` [Example 28, N-Hydroxy-4-{4-[4-(3-ethoxyphenyl)-3-methylphenyl]-1,2,3,6-tetrahydropyridin-1-ylsulphonyl}tetrahydropyran-4-carboxymide], the melting point fell in the range of 152 to 154 °C. For the same molecule, the IC50 at MMP-3 was 24 nM. On MMP-2, this molecule displayed an IC50 of 432 nM. With `CCOc1cccc(-c2ccc(C3=CCN(S(=O)(=O)C(C)(C)C(=O)NO)CC3)cc2C)c1` [Example 30, N-Hydroxy-2-{4-[4-(3-ethoxyphenyl)-3-methylphenyl]-1,2,3,6-tetrahydropyridin-1-ylsulphonyl}2-methylpropanamide], the melting point fell in the range of 116 to 118 °C.

For `CCOc1cccc(-c2ccc(C3CCN(S(=O)(=O)CC(=O)NO)CC3)cc2C)c1` [Example 31, N-Hydroxy-2-{4-[4-(3-ethoxyphenyl)-3-methylphenyl]piperidin-1-ylsulphonyl}acetamide], the melting point lay within 179 to 180 °C.

Molecule `CCOc1cccc(-c2ccc(C3CCN(S(=O)(=O)C(C)(C)C(=O)NO)CC3)cc2C)c1` [Example 32, N-Hydroxy-2-{4-[4-(3-ethoxyphenyl)-3-methylphenyl]piperidin-1-ylsulphonyl}-2-methylpropanamide] gave a melting point of 172 to 174 °C. Turning to `Cc1cc(C2=CCN(S(=O)(=O)CC(=O)NO)CC2)ccc1-c1cccnc1` [Example 34, N-Hydroxy-2-{4-[3-methyl-4-(pyridin-3-yl)phenyl]-1,2,3,6-tetrahydropyridin-1-ylsulphonyl}acetamide], the melting point is 132 to 136 °C. Still for that read-out and setting: then `Cc1cc(C2=CCN(S(=O)(=O)CC(=O)NO)CC2)ccc1-c1cccc(CO)c1` [Example 39, N-Hydroxy-2-{4-[4-(3-hydroxymethylphenyl)-3-methylphenyl]-1,2,3,6-tetrahydropyridin-1-ylsulphonyl}acetamide], with 174 to 176 °C. `Cc1cc(C2=CCN(S(=O)(=O)C(C)(C)C(=O)NO)CC2)ccc1-c1cnc2ccccc2c1` [Example 40, N-Hydroxy-2-methyl-2-{4-[3-methyl-4-(quinolin-3-yl)phenyl]-1,2,3,6-tetrahydropyridin-1-ylsulphonyl}propanamide] came in with a melting point of 158 to 160 °C. This molecule also showed an IC50 against MMP-3 of 18 nM. In addition, at MMP-2, 525 nM corresponded to half-maximal inhibition (IC50). `COCc1cccc(-c2ccc(C3=CCN(S(=O)(=O)CC(=O)NO)CC3)cc2C)c1` [Example 42, N-Hydroxy-2-{4-[4-(3-methoxymethylphenyl)-3-methylphenyl]-1,2,3,6-tetrahydropyridin-1-ylsulphonyl}acetamide] showed a melting point of 151 to 153 °C.

With `COCCOc1cccc(-c2ccc(C3=CCN(S(=O)(=O)CC(=O)NO)CC3)cc2C)c1` [Example 43, N-Hydroxy-2-{4-[4-(3-[2-methoxyethoxy]phenyl)-3-methylphenyl]-1,2,3,6-tetrahydropyridin-1-ylsulphonyl}acetamide], the melting point fell in the range of 158 to 160 °C.

In turn, `Cc1cc(C2=CCN(S(=O)(=O)CC(=O)NO)CC2)ccc1-c1cccc(C(F)(F)F)c1` [Example 45, N-Hydroxy-2-{4[3-methyl-4-(3-trifluoromethylphenyl)phenyl]-1,2,3,6-tetrahydropyridin-1-ylsulphonyl}acetamide] registered a melting point of 168 to 170 °C. On the same count and under the same terms, next, `O=C(CS(=O)(=O)N1CCC(c2ccc(Oc3ccccc3)cc2)CC1)NO` [Example 46, N-Hydroxy-2-[4-(4-phenoxyphenyl)piperidin-1-ylsulphonyl]acetamide]: 176 to 179 °C; `COCCOc1cccc(-c2ccc(C3CCN(S(=O)(=O)C(C)(C)C(=O)NO)CC3)cc2C)c1` [Example 47, N-Hydroxy-2-{4-[4-(3-[2-methoxyethoxy]phenyl)-3-methylphenyl]piperidin-1-ylsulphonyl}-2-methylpropanamide]: 155 to 156 °C. Take `COc1cccc(-c2ccc(C3CCN(S(=O)(=O)C4(C(=O)NO)Cc5ccccc5C4)CC3)cc2C)c1` [Example 50, N-Hydroxy-2-{4-[4-(3-methoxyphenyl)-3-methylphenyl]piperidin-1-ylsulphonyl}indane-2-carboxymide]: the melting point was 199 to 202 °C. Also, the IC50 against MMP-3 stood at 23 nM. On MMP-2, this molecule showed an IC50 of 1910 nM. `Cc1cc(C2=CCN(S(=O)(=O)CC(=O)NO)CC2)ccc1-c1ccc(F)c(Cl)c1` [Example 55, N-Hydroxy-2-{4-[4-(3chloro-4-fluorophenyl)-3-methylphenyl]-1,2,3,6-tetrahydropyridin-1-ylsulphonyl}acetamide] yielded a melting point of 181 to 183 °C. In turn, `Cc1cc(C2=CCN(S(=O)(=O)CC(=O)NO)CC2)ccc1-c1ccc2c(c1)OCO2` [Example 56, N-Hydroxy-2-{4-[4-(1,3-benzodioxol-5-yl)-3-methylphenyl]-1,2,3,6-tetrahydropyridin-1-ylsulphonyl}acetamide] registered a melting point of 165 to 167 °C. At MMP-3, this molecule displayed an IC50 of 15 nM. Moreover, on MMP-2, inhibition was half-maximal at 387 nM (IC50). Molecule `Cc1cc(C2=CCN(S(=O)(=O)CC(=O)NO)CC2)ccc1-c1ccccc1F` [Example 57, N-Hydroxy-2-{4-[4-(2-fluorophenyl)-3-methylphenyl]-1,2,3,6-tetrahydropyridin-1-ylsulphonyl}acetamide] yielded a melting point of 160 to 163 °C. The same measure, in the same setting: next, `COc1ccc(-c2ccc(C3=CCN(S(=O)(=O)CC(=O)NO)CC3)cc2C)cc1OC` [Example 58, N-Hydroxy-2-{4-[4-(3,4-dimethoxyphenyl)-3-methylphenyl]-1,2,3,6-tetrahydropyridin-1-ylsulphonyl}acetamide]: 172 to 174 °C. Regarding `Cc1cc(C2=CCN(S(=O)(=O)CC(=O)NO)CC2)ccc1-c1ccc2c(c1)CCC2` [Example 59, N-Hydroxy-2-{4-[4-(indan-5-yl)-3-methylphenyl]-1,2,3,6-tetrahydropyridin-1-ylsulphonyl}acetamide], the melting point was 149 to 152 °C. On to `Cc1cc(C2=CCN(S(=O)(=O)CC(=O)NO)CC2)ccc1-c1cccc(OC(F)(F)F)c1` [Example 60, N-Hydroxy-2-{4-[3-methyl-4-(3-trifluoromethoxyphenyl)phenyl]-1,2,3,6-tetrahydropyridin-1-ylsulphonyl}acetamide], for which the melting point stood at 154 °C. Still for that read-out and setting: then `Cc1cc(C2CCN(S(=O)(=O)C(C)(C)C(=O)NO)CC2)ccc1-c1ccc2c(c1)OC(C)(C)O2` [Example 62, N-Hydroxy-2-{4-[4-(2,2-dimethyl-1,3-benzodioxol-5-yl)-3-methylphenyl]-piperidin-1-ylsulphonyl}-2-methylpropionamide], with 184 to 186 °C.

The molecule `Cc1cc(C2CCN(S(=O)(=O)C(C)(C)C(=O)NO)CC2)ccc1-c1ccc2c(c1)nc(C)n2C` [Example 63, N-Hydroxy-2-{4-[4-(1,2-dimethylbenzimidazol-5-yl)-3-methylphenyl]piperidin-1-ylsulphonyl]-2-methylpropionamide] gave a melting point of 213 to 215 °C.
